In ChEMBL document CHEMBL1201862, “PubChem BioAssay data set” (2004):
Activity calls are given as the source filed them.

Tests used:
[1] = target: T1, Neuropeptides B/W receptor type 1 (Homo sapiens, UniProt P48145); test: Fluorescence-based dose response cell-based high throughput screening assay to identify antagonists of the G-protein coupled receptor 7 (GPR7). [Related pubchem assays: 1952 (Screening assay (GPR7 antagonists).), 1880 (Summary AID.)]; assay type: functional
T1 sequence (P48145 whole entry): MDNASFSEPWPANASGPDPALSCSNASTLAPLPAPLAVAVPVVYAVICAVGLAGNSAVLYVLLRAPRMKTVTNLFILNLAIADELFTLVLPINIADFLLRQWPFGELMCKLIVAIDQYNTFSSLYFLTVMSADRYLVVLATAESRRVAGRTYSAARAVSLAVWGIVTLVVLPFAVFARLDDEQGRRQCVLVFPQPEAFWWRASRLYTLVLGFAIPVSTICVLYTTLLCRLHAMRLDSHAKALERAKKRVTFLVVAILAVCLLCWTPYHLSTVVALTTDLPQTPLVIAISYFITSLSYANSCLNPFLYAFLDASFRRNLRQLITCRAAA

[2] = target: Melanin-concentrating hormone receptor 1 (Homo sapiens, UniProt Q99705); test: Fluorescence-based counterscreen for antagonists of the G-protein coupled receptor 7 (GPR7): cell-based high throughput dose response assay to identify antagonists of the melanin-concentrating hormone receptor 1 (MCHR1).; assay type: functional
Melanin-concentrating hormone receptor 1, sequence (Q99705 whole entry): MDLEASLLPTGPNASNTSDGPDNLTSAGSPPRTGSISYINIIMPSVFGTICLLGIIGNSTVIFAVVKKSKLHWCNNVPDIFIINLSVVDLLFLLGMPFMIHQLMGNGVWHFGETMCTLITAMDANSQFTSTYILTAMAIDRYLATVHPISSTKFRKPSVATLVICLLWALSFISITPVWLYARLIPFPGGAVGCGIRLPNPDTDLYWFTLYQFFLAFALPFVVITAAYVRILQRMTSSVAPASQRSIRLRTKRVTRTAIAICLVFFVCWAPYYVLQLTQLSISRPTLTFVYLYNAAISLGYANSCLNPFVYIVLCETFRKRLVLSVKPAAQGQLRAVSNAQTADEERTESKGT

Estrogen receptor beta [3] = target: T2, Estrogen receptor beta (Homo sapiens, UniProt Q92731); test: ERβ–SRC-3 coactivator interaction inhibitors, confirmation, orthogonal assay, biochemical, ELISA, streptavidin-HRP readout (AID 1060)
T2 sequence (Q92731 whole entry): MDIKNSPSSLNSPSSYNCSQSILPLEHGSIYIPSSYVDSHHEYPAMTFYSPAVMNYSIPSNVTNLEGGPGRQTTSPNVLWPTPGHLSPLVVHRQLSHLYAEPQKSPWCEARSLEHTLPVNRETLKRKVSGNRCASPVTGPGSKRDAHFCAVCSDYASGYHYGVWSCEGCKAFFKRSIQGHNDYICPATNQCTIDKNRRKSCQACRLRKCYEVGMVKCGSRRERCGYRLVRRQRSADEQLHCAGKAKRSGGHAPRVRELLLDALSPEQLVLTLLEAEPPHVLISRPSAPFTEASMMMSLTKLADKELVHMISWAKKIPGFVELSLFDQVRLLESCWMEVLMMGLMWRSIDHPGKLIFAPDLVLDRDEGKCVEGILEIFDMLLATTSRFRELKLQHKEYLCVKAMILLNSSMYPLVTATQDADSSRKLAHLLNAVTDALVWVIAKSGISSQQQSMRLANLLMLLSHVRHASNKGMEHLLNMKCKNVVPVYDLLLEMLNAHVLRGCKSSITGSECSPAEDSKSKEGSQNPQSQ

Estrogen receptor beta [4] = target: T2, Estrogen receptor beta
SUMO-activating enzyme [5] = target: T3, SUMO-activating enzyme (Homo sapiens, UniProt Q9UBT2); test: inhibitors of in vitro SUMOylation cascade, primary screen, biochemical, HTRF, uHTS (AID 2006); assay type: protein-complex assay
T3 sequence (Q9UBE0 whole entry): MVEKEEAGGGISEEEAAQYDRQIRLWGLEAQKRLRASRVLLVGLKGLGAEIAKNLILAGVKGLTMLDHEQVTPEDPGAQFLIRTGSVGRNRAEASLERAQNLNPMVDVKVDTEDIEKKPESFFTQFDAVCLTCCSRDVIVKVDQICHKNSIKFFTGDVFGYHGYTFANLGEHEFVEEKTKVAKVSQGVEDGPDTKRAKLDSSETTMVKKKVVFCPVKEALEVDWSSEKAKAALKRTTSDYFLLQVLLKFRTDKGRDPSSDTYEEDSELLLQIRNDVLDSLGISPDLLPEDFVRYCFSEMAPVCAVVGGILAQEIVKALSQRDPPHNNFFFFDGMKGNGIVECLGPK
T3 sequence (Q9UBT2 whole entry): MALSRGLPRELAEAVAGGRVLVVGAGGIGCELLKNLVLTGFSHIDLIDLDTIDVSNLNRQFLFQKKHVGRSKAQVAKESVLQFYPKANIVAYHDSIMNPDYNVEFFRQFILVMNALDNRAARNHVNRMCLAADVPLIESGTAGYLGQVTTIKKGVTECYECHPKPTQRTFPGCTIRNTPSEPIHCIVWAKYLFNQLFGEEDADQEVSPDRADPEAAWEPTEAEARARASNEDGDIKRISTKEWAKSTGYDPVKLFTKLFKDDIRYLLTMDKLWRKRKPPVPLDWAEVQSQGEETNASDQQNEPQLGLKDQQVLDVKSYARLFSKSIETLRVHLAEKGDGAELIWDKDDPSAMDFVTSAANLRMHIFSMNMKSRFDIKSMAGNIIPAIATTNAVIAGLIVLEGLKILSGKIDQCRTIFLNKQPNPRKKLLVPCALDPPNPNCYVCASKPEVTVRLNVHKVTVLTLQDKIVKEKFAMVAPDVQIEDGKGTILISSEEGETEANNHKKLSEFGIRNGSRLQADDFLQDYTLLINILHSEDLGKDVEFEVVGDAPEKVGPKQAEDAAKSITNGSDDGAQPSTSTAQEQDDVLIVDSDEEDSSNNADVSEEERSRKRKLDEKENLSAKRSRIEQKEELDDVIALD

Bcl-2-like protein 1 = Bcl-2-like protein 1 (Homo sapiens, UniProt Q07817); test: BCL-XL inhibitors, dose response, selectivity assay for MCL1 inhibitor project, biochemical, fluorescence polarization, 1536-well (AID 2218)
Bcl-2-like protein 1, sequence (Q07817 whole entry): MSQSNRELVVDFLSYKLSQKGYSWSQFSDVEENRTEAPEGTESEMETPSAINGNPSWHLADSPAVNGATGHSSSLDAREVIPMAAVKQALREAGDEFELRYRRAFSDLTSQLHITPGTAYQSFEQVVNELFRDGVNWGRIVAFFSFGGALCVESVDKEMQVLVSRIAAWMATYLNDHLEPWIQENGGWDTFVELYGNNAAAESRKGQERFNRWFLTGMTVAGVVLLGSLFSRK

[6] = target: Induced myeloid leukemia cell differentiation protein Mcl-1 (Homo sapiens, UniProt Q07820); test: MCL1-BIM BH3 interaction inhibitors, dose response, biochemical, fluorescence polarization, BIM-BH3 peptide, 1536-well (AID 2217)
Induced myeloid leukemia cell differentiation protein Mcl-1, sequence (Q07820 whole entry): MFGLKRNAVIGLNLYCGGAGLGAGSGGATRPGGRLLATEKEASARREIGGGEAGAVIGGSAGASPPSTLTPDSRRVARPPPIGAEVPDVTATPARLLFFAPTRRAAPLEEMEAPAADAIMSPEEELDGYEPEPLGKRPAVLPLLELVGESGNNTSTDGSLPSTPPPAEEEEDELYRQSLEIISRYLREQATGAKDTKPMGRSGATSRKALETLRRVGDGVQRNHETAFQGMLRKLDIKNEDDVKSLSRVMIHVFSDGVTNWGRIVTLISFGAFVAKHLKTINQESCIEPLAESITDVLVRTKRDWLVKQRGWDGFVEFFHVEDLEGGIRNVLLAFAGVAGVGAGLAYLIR

SUMO-activating enzyme [7] = target: T3, SUMO-activating enzyme; test: SUMOylation inhibitor hit validation, confirmation, SUMOylation inhibitor project, biochemical, AlphaScreen (AID 2018); assay type: functional
[8] = A cytotoxicity screen of small molecule inhibitors of the PhoP region in Salmonella typhi identified in the primary screen. [Related pubchem assays: 1850, 1864, 1985 ]; assay type: functional
[9] = inhibitors of intracellular T. cruzi replication, confirmation, NIH3T3 host cells, beta-gal luminescence (AID 2044); assay type: functional, cell-based;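 further: intracellular parasites grown in NIH/3T3 mouse fibroblasts as host cells; luminescent beta-galactosidase reporter signal from transgenic T. cruzi replicating inside host cells; inhibitors lower the luminescence signal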
cells [10] = test: cells
[11] = cytotoxicity toward NIH3T3 fibroblasts, dose response, counter-screen, cell-based, ATP luminescence, mouse fibroblasts (AID 2010); assay type: functional;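 further: cells exposed to compound for about 90 hours before reading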
[12] = Luminescence-based counterscreen assay for KLF5 inhibitors: dose response cell-based high throughput screening assay to identify cytotoxic compounds using the IEC-6 intestinal epithelial cell line. [Related pubchem assays: 1700 (Primary screen.), 1834 (Confirmation screen.), 1858 (Summary AID.), 1905 (Counterscreen.)]; assay type: functional
[13] = NIH-3T3 fibroblast cytotoxicity, dose response, cytotoxicity control, cell-based, fluorescence, Alamar Blue, secondary assay (AID 2327); assay type: functional;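 further: NIH-3T3 mouse fibroblasts cultured with fluconazole at 8 µg/mL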
cells [14] = assay type: functional, cell-based
[15] = target: T4, Heat shock factor protein 1 (Mus musculus, UniProt P38532); test: inhibition of MG132-induced HSE-luciferase signal, confirmation, cell-based, NIH3T3, luminescence, dose retest (AID 2382); assay type: functional;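 further: NIH3T3 fibroblasts with HSF1-driven luciferase reporter stressed by proteasome inhibitor MG132; luminescence from HSF1-driven luciferase expression after 8 hours of MG132 stress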
T4 sequence (P38532 whole entry): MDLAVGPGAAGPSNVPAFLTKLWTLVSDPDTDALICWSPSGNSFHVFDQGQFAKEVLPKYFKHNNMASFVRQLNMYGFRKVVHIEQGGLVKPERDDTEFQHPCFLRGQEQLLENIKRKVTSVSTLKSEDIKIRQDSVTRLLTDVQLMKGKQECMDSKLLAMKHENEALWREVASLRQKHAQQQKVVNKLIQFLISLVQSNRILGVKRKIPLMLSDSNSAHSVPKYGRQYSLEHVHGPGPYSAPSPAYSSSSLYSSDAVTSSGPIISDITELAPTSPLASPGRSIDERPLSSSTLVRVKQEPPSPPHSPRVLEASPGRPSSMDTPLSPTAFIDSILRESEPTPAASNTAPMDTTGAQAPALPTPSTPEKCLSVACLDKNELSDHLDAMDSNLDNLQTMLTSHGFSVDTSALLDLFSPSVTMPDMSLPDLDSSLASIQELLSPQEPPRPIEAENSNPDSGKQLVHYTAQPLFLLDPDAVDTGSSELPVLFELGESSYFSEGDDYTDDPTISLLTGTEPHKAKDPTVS

Paired box protein Pax-8 = Paired box protein Pax-8 (Homo sapiens, UniProt Q06710); test: inhibitors of PAX8-driven TPO luciferase reporter, dose response, RMG-I cells, cherry-pick (AID 687027); assay type: functional, cell-based;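 further: luciferase reporter driven by Pax8 target thyroperoxidase promoter measured by SteadyGlo luminescence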
Paired box protein Pax-8, sequence (Q06710 whole entry): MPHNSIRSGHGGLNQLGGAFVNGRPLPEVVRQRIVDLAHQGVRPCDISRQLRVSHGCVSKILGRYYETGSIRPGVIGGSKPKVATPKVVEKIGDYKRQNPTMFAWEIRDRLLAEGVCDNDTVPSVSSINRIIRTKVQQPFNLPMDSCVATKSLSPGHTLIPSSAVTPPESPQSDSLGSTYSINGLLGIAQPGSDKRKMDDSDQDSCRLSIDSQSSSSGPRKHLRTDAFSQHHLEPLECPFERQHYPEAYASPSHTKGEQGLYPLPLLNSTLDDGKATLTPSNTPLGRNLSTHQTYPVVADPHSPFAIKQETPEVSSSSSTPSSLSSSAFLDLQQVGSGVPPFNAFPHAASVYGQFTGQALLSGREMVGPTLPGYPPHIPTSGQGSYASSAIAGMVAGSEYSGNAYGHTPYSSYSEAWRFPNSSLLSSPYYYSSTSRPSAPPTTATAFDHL

INS1 = test: beta cell apoptosis inhibitors, cytokine rescue, dose response, luminescence, retest (AID 449756); assay type: functional, cell-based; conditions: Rattus norvegicus;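 further: cell death triggered by IL-1 beta plus TNF-alpha plus IFN-gamma mixture; protective hits raise ATP signal compared with cytokine alone wells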
[16] = C. albicans growth with fluconazole, confirmation, fluorescence, retest (AID 2467); assay type: functional, cell-based
Nonstructural protein 1 = Nonstructural protein 1 (Influenza A virus, UniProt Q194T2); assay type: functional, Influenza A virus (A/California/07/2009(H1N1))
Nonstructural protein 1, sequence (Q194T2 whole entry): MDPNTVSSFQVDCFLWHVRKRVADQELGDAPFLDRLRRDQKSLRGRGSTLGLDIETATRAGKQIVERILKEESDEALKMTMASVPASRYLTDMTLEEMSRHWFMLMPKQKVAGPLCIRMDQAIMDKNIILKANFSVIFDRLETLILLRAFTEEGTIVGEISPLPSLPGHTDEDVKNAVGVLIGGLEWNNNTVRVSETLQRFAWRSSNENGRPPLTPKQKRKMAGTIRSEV

cells [17] = assay type: functional, cell-based; remark: listed apart in the source
[18] = Luminescence Cell-Based Dose Response to Identify Activators of Luciferase Translation or Activity in H4-C Neuroglioblastoma Cells. [Related pubchem assays: 1829 (Project Summary), 1814 (Primary HTS)]; assay type: functional
[19] = Luminescence Cell-Based Dose Confirmation to Identify Activators of 5'UTR Stem-Loop Driven Alpha-Synuclein mRNA Translation in H4 Neuroglioblastoma Cells. [Related pubchem assays: 1829 (Project Summary), 1814 (Primary HTS)]; assay type: functional
[20] = Luminescence Cell-Based Dose Response HTS to Identify Activators of Luciferase Translation or Activity in H4 […] Cells. [Related pubchem assays: 1829 (Project Summary), 1814 (Primary HTS)]; assay type: functional
[21] = Luminescence Cell-Based Dose Response to Identify Activators of 5'UTR Stem-Loop Driven Prion Protein mRNA Translation in H4-C Neuroglioblastoma Cells. [Related pubchem assays: 1829 (Project Summary), 1814 (Primary HTS)]; assay type: functional
Streptokinase A = target: T5, Streptokinase A (Streptococcus pyogenes serotype M1, UniProt P10520); test: S. pyogenes streptokinase expression inhibitors, potency, dose response, plasminogen activation absorbance, OD405 (AID 1914); assay type: functional, Streptococcus pyogenes M1 GAS;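 further: secreted streptokinase activity via plasminogen activation per viability signal from cell pellet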
T5 sequence (P10520 whole entry): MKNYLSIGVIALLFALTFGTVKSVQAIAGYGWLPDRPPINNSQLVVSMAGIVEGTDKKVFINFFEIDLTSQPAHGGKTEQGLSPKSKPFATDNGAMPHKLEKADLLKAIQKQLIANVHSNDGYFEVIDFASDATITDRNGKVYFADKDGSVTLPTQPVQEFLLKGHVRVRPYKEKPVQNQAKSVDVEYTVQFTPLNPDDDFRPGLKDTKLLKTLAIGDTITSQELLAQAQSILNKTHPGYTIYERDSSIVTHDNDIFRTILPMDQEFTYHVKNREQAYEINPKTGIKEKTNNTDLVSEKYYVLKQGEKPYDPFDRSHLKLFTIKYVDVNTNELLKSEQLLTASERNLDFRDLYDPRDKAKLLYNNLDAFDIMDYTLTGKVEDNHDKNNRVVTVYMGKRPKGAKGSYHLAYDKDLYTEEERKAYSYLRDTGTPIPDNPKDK

Vero = test: host cell cytotoxicity of antiviral hits, dose response, cytotoxicity control for West Nile virus antiviral project, secondary assay (AID 1650); assay type: functional; conditions: Chlorocebus sabaeus
[22] = system: Streptococcus sp. 'group A'; test: growth inhibition of control SK(-) GAS strain, dose response, counter-screen for streptokinase expression inhibitor project, luminescence, kanamycin, BacTiterGlo, confirmation (AID 1900); assay type: functional, organism-based
Streptococcus = test: Group A Streptococcus viability loss, dose response, counter-screen for streptokinase expression inhibitor project, luminescence, BacTiterGlo (AID 1915); assay type: functional, organism-based;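 further: potency for reduction of bacterial viability or growth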
H4 = test: Luminescence Cell-Based Dose Response HTS to Identify Activators of 5'UTR Stem-Loop Driven Prion Protein mRNA Translation in H4 Neuroglioblastoma Cells. [Related pubchem assays: 1829 (Project Summary), 1814 (Primary HTS)]; assay type: functional; conditions: Homo sapiens
[23] = target: T6, Neuropeptide Y receptor type 1 (Homo sapiens, UniProt P25929); assay type: functional;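 further: HEK293 cells with a CNG channel challenged with NPY then isoproterenol; potency as antagonist that reverses NPY suppression of cAMP signal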
T6 sequence (P25929 whole entry): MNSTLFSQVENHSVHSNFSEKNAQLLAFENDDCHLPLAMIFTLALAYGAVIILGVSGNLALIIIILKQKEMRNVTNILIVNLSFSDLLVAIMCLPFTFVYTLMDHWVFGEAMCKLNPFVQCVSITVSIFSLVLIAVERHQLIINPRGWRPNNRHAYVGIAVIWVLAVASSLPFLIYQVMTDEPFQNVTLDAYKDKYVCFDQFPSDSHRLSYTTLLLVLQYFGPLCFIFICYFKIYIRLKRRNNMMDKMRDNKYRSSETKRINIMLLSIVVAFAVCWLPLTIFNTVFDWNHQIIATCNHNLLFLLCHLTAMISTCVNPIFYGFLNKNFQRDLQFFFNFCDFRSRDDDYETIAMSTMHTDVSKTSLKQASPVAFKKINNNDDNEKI

[24] = target: T7, Neuropeptide Y receptor type 2 (Homo sapiens, UniProt P49146); assay type: functional, cell-based;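 further: HEK293 cells expressing the receptor and a CNG channel; stimulus was NPY near EC95 followed by isoproterenol to raise cAMP; antagonist potency measured as restoring cAMP signal that NPY suppresses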
T7 sequence (P49146 whole entry): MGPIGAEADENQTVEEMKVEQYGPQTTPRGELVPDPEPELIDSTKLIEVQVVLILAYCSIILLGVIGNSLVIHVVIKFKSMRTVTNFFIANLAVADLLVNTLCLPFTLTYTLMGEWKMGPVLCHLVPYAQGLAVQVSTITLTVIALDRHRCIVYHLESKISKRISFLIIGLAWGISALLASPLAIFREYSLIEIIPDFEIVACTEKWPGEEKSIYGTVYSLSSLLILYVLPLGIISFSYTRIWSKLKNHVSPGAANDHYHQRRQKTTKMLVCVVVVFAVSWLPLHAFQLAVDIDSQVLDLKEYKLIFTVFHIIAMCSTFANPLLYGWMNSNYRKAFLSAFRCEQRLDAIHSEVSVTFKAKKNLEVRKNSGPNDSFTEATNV

## Cc1ccc(NC(Cc2cc(C)no2)c2ccccc2)cc1 (stereo not drawn)
[1]
  IC50: 9.47 µM (active)
[2]
  IC50: 19.8 µM (not active)

## CCOC(=O)C1=C(C)NC(=O)NC1c1ccco1 (stereo not drawn)
Estrogen receptor beta [3]
  IC50: < 0.023 µM (not active)
Estrogen receptor beta [4]
  IC50: 9.28 µM (active)

## O=C1NC(=O)N(Cc2ccco2)C(=O)/C1=C/c1ccc(-c2cccc([N+](=O)[O-])c2)o1
SUMO-activating enzyme [5]
  IC50: 22.4 µM (active)
Bcl-2-like protein 1
  IC50: 17.6 µM (not active)
[6]
  IC50: 9.6 µM (active)
SUMO-activating enzyme [7]
  IC50: 6.08 µM (active)

## CCNC(=O)c1ccc(C2SCC(=O)N2CCc2ccccc2)cc1 (stereo not drawn)
[8]
  EC50: > 50 µM (active)

## COc1cccc(CNC(=O)CCC2CCCN(C/C=C/c3ccccc3OC)C2)c1 (stereo not drawn)
[9]
  EC50: < 0.1 µM (active)
Cells [10]
  EC50: 0.05 µM (active)
[11]
  EC50: > 60 µM (not active)

## COc1ccccc1N1CCN(Cc2cc(Br)c(O)c3ncccc23)CC1
[12]
  IC50: 6.32 µM (active)
[13]
  EC50: 19.4 µM (inconclusive)
Cells [14]
  EC50: > 350 µM (not active)
[9]
  EC50: 1.34 µM (active)
[15]
  EC50: 0.482 µM (active)
Paired box protein Pax-8
  AC50: 1.82 µM (active)
INS1
  AC50: 3.95 µM (active)
[16]
  EC50: 2.22 µM (active)
Nonstructural protein 1
  IC50: 15.4 µM (active)
[11]
  EC50: 6.15 µM (active)
Cells [17]
  EC50: 8.13 µM (active)

## Cc1ccc(-c2c(C)s/c(=N\C(=O)c3ccco3)n2C)cc1
[18]
  EC50: 0.354 µM (active)
[19]
  EC50: > 12 µM (not active)
[20]
  EC50: < 0.1 µM (active)
[21]
  EC50: 0.469 µM (active)

## O=C(CNc1cccc2ccccc12)N/N=C/c1ccc(C(=O)O)cc1
Bcl-2-like protein 1
  IC50: > 109 µM (not active)
[6]
  IC50: 26.6 µM (not active)

## Cc1cc(C)c(C(=O)Nc2ccc(Br)c(C(F)(F)F)c2)c(C)c1
Streptokinase A
  EC50: 3.29 µM (active)
Vero
  CC50: 47.4 µM (active)
[22]
  EC50: 2.41 µM (active)
Streptococcus
  EC50: 3.73 µM (active)

## COc1cccc(-c2nc(O)c3c4c(sc3n2)CCCCC4)c1
[18]
  EC50: 1.36 µM (active)
[19]
  EC50: 0.303 µM (active)
[20]
  EC50: < 0.1 µM (active)
[21]
  EC50: 0.37 µM (active)
H4
  EC50: 11.6 µM (active)

## N#Cc1ccc(-c2cccnc2)nc1SCc1ccc(Cl)c(Cl)c1
[23]
  IC50: 5.69 µM (active)
[24]
  IC50: 5.19 µM (active)

## Clc1ccc(OCCSc2nnnn2C2CCCCC2)cc1
[23]
  IC50: 9.04 µM (active)
[24]
  IC50: 14.2 µM (not active)

## Cc1cc2cc(CNC(=O)C(C)Oc3ccccc3)ccc2n1C (stereo not drawn)
[8]
  EC50: > 50 µM (active)
